Values joined by “and” are separate entries in the source; they are usually repeats but may differ in a detail not shown here. Equal entries are not always repeated. Where two headings read alike, the source gives them in different places.
Columns and labels:
A549 (lung cancer) = assay: Sulphorhodamine B cytotoxicity test, A549 line; type: cell-based; conditions: for Cytotoxic activity class, A549 (lung cancer) / Cytotoxic activity, IC50, A549 (lung cancer) / IC50: 72 hours incubation, sulphorhodamine B
Experimental: (§1) Cytotoxic activity tests were performed using the following cancer cell lines: MCF-7 (breast cancer), HeLa (cervical cancer) A549 (pulmonary cancer) and KB (nasopharynx cancer) obtained from ECACC (European Collection of Cell Cultures). Cytotoxicity tests were carried out using a standard procedure with sulphorhodamine B. They involved incubation of the cancer cell lines in the logarithmic growth phase for 72 hours with the compound tested and, subsequently, spectrophotometric determination of the degree of cell growth inhibition using adsorption of a dye (sulphorhodamine B) which binds cellular proteins. The determination was carried out according to a procedure reported in: Vichai, V., Kirtikara, K. […] Solutions of the test compounds were prepared in DMSO in the following concentration range: 0.05; 0.1; 0.5; 1; 5; 10; 50; 100 μM. The cells of the lines tested were treated with the solutions of the test compounds in a laminar-flow chamber which ensured sterile working conditions according to the following procedure: the first three wells were used as a control: they contained 20 μL of DMSO only; successive solutions of the test compound were added to subsequent wells (20 μL), starting with the lowest concentration (three wells for each concentration level). Subsequently, the plates were placed in an incubator for 72 hours. After the end of incubation, the adhered cells were fixed by adding 500 μL of cold (4° C.) 50% trichloroacetic acid (TCA) and incubated at 4° C. for 1 hour. Subsequently, each well was rinsed with sterile water and dried. The operation was repeated five times. The fixed cells were stained for 30 minutes by adding 500 μL of 0.4% of a dye solution (sulphorhodamine B) dissolved in 1% acetic acid. […] Subsequently, the plates were dried in air for approx. 5 minutes. Any […] dye was dissolved by adding 1500 μL of […] Tris-base buffer (trishydroxymethylaminomethane) to each well and shaken using an orbital shaker for 5 minutes. […] Depending on the type of the cell line, the following growth media were used: • the MCF-7 line was grown in Dulbecco's Modified Eagle's Medium (DME) from Sigma (cat. no. […] R8758). […] Program Procedure. Instruction and technical documentation change notice, instruction 14. Screening data summary interpretation and outline of current screening. Edition NCI NIH, Bethesda Rev., 1980, 6, 31-62).

[1] = system: MCF-7 line (breast cancer); assay: Sulphorhodamine B cytotoxicity test, MCF-7 line; type: cell-based; conditions: for Cytotoxic activity class, MCF-7 line (breast cancer) / Cytotoxic activity, IC50, MCF-7 line (breast cancer) / IC50: 72 hours incubation, sulphorhodamine B
Experimental: as §1

HeLa (cervical cancer) = assay: Sulphorhodamine B cytotoxicity test, HeLa line; type: cell-based; conditions: for Cytotoxic activity class, HeLa (cervical cancer) / Cytotoxic activity, IC50, HeLa (cervical cancer) / IC50: 72 hours incubation, sulphorhodamine B
Experimental: as §1

KB (nasopharynx cancer) = assay: Sulphorhodamine B cytotoxicity test, KB line; type: cell-based; conditions: for Cytotoxic activity, IC50, KB (nasopharynx cancer) / IC50: 72 hours incubation, sulphorhodamine B
Experimental: Cytotoxic activity tests were performed using the following cancer cell lines: MCF-7 (breast cancer), HeLa (cervical cancer) A549 (pulmonary cancer) and KB (nasopharynx cancer) obtained from ECACC (European Collection of Cell Cultures).
Cytotoxicity tests were carried out using a standard procedure with sulphorhodamine B. They involved incubation of the cancer cell lines in the logarithmic growth phase for 72 hours with the compound tested and, subsequently, spectrophotometric determination of the degree of cell growth inhibition using adsorption of a dye (sulphorhodamine B) which binds cellular proteins. The determination was carried out according to a procedure reported in: Vichai, V., Kirtikara, K. Nature Protocols, 2006, 1, 1112.
Preparation of Cells for the Experiment:
Cancerous cells of the cell line tested in the logarithmic growth phase were seeded onto 24-well plates in a quantity of 20,000 cells/2 mL of the growth medium per well and, subsequently, incubated in an incubator at 37° C., in the 5% CO2 atmosphere for 24 hours.
Preparation of Test Compound Solutions:
Solutions of the test compounds were prepared in DMSO in the following concentration range: 0.05; 0.1; 0.5; 1; 5; 10; 50; 100 μM.
The cells of the lines tested were treated with the solutions of the test compounds in a laminar-flow chamber which ensured sterile working conditions according to the following procedure: the first three wells were used as a control: they contained 20 μL of DMSO only; successive solutions of the test compound were added to subsequent wells (20 μL), starting with the lowest concentration (three wells for each concentration level). Subsequently, the plates were placed in an incubator for 72 hours.
After the end of incubation, the adhered cells were fixed by adding 500 μL of cold (4° C.) 50% trichloroacetic acid (TCA) and incubated at 4° C. for 1 hour. Subsequently, each well was rinsed with sterile water and dried. The operation was repeated five times. The fixed cells were stained for 30 minutes by adding 500 μL of 0.4% of a dye solution (sulphorhodamine B) dissolved in 1% acetic acid. Any unbound dye was removed by decanting it from the plate, and the cells were washed 4 times with 1% acetic acid. Subsequently, the plates were dried in air for approx. 5 minutes. Any […] dye was dissolved by adding 1500 μL of […] Tris-base buffer (trishydroxymethylaminomethane) to each well and shaken using an orbital shaker for 5 minutes. Subsequently, 200 μL of solution from each well was transferred to each of two wells on a new 96-well plate and absorption of the solutions was determined spectrophotometrically at a wavelength of 490-530 nm using a plate reader.
Depending on the type of the cell line, the following growth media were used: • the MCF-7 line was grown in Dulbecco's Modified Eagle's Medium (DME) from Sigma (cat. no. D5796), • the HeLa, A549 and KB lines were grown in RPMI-1640 Medium from Sigma (cat. no. R8758).
IC50 values, denoting concentration of a compound needed to obtain 50% inhibition of cell growth, were determined for all the derivatives tested.

[2] = system: breast cancer cells (MCF-7); conditions: in vitro; Martirosyan et al. 2004; read-out: IC50, inhibition of growth and differentiation of breast cancer cells (MCF-7); cited from earlier work
[3] = average of three determinations
[4] = average of three determinations, read-out: Cytotoxic activity, IC50, A549 (lung cancer)
[5] = average of three determinations, read-out: Cytotoxic activity, IC50, MCF-7 line (breast cancer)
[6] = average of three determinations, read-out: Cytotoxic activity, IC50, HeLa (cervical cancer)
[7] = average of three determinations, read-out: Cytotoxic activity, IC50, KB (nasopharynx cancer)
[8] = read-out: Cytotoxic activity class, KB (nasopharynx cancer)
[9] = Homo sapiens, A549, average of three determinations, read-out: Cytotoxic activity, IC50, A549 (lung cancer)
[10] = Homo sapiens, A549, read-out: Cytotoxic activity class, A549 (lung cancer)
[11] = Homo sapiens, MCF7, average of three determinations, read-out: Cytotoxic activity, IC50, MCF-7 line (breast cancer)
[12] = Homo sapiens, MCF7, read-out: Cytotoxic activity class, MCF-7 line (breast cancer)
[13] = Homo sapiens, HeLa, average of three determinations, read-out: Cytotoxic activity, IC50, HeLa (cervical cancer)
[14] = Homo sapiens, HeLa, read-out: Cytotoxic activity class, HeLa (cervical cancer)

Compound	Cytotoxic activity class, A549 (lung cancer) (A549 (lung cancer))	Cytotoxic activity, IC50, A549 (lung cancer) (A549 (lung cancer); [3]) [µg/mL]	IC50 (A549 (lung cancer); [4]) [µM]	Cytotoxic activity class, MCF-7 line (breast cancer) [1]	Cytotoxic activity, IC50, MCF-7 line (breast cancer) [1, 3] [µg/mL]	IC50 [1, 5] [µM]	Cytotoxic activity class, HeLa (cervical cancer) (HeLa (cervical cancer))	Cytotoxic activity, IC50, HeLa (cervical cancer) (HeLa (cervical cancer); [3]) [µg/mL]	IC50 (HeLa (cervical cancer); [6]) [µM]	Cytotoxic activity, IC50, KB (nasopharynx cancer) (KB (nasopharynx cancer); [3]) [µg/mL]	IC50 (KB (nasopharynx cancer); [7])	IC50 (KB (nasopharynx cancer); [8]) [µg/mL]	IC50 (A549 (lung cancer); [9])	IC50 (A549 (lung cancer); [10]) [µg/mL]	IC50 [1, 11]	IC50 [1, 12] [µg/mL]	IC50 (HeLa (cervical cancer); [13])	IC50 (HeLa (cervical cancer); [14]) [µg/mL]	other results
9-O-propargylcinchonidine [PCD]	(MA) (IC50 range of 4-30 μg/mL are considered medium active (abbreviated as MA))	16.0	48.1	(MA) (IC50 range of 4-30 μg/mL are considered medium active (abbreviated as MA))	9.3	28	(MA) (IC50 range of 4-30 μg/mL are considered medium active (abbreviated as MA))	10.0	30.1	9.5	28.6 µM	4 to 30							reduction in cytotoxic activity on change to the opposite configuration (8S,9R) ([1]; PCD versus PCN, general statement, not tied to one cell line): about 3 fold
C#CCO[C@@H](c1ccnc2ccccc12)[C@H]1C[C@@H]2CCN1C[C@@H]2C=C [PCN, 9-O-propargylcinchonine]	(A) (IC50<4 μg/mL are generally assumed as active (abbreviated as A))	3.9	11.7	(A) (IC50<4 μg/mL are generally assumed as active (abbreviated as A))	3.0	9.02	(A) (IC50<4 μg/mL are generally assumed as active (abbreviated as A))	3.5	10.5	3.2	9.63 µM	< 4							times as cytotoxic as 5FU (A549 (lung cancer); A549 line, ratio of IC50 to 5FU): more than five times; times as cytotoxic as 5FdU (A549 (lung cancer); A549 line, ratio of IC50 to 5FdU): more than three times; times as cytotoxic as 5FU ([1]; MCF-7 line, ratio of IC50 to 5FU): more than six times; times as active as 5FdU ([1]; MCF-7 line, ratio of IC50 to 5FdU): 3.8 times; times as cytotoxic as 5FU (HeLa (cervical cancer); HeLa line, ratio of IC50 to 5FU): six times; times as cytotoxic as 5FdU (HeLa (cervical cancer); HeLa line, ratio of IC50 to 5FdU): 3.7 times; times as high activity compared to 5FU (KB (nasopharynx cancer); KB line, ratio of IC50 to 5FU): 6.8 times; times as high activity compared to 5FdU (KB (nasopharynx cancer); KB line, ratio of IC50 to 5FdU): 4.3 times
O=c1[nH]cc(F)c(=O)[nH]1 [5-fluorouracil, reference compound]											22 µg/mL and 169 µM	4 to 30	21.4 µg/mL and 165 µM	4 to 30	18.2 µg/mL and 140 µM	4 to 30	21 µg/mL and 161 µM	4 to 30	
O=c1[nH]c(=O)n([C@H]2C[C@H](O)[C@@H](CO)O2)cc1F [5-fluoro-2′-deoxyuridine, reference compound]											13.7 µg/mL and 55.6 µM	4 to 30	13.4 µg/mL and 54.4 µM	4 to 30	11.4 µg/mL and 46.3 µM	4 to 30	13 µg/mL and 52.8 µM	4 to 30	
C=C[C@H]1C[N@@]2CC[C@H]1C[C@@H]2[C@@H](O)c1ccnc2ccccc12 [cinchonine, reference compound]											> 50 µg/mL		> 50 µg/mL		> 50 µg/mL		> 50 µg/mL		
C=C[C@H]1C[N@@]2CC[C@H]1C[C@H]2[C@H](O)c1ccnc2ccc(OC)cc12 [quinine]																			IC50 [2]: 40 µM

Source: US20160022668A1, “APPLICATION OF CINCHONA ALKALOID DERIVATIVES AS CYTOTOXIC COMPOUNDS” (ADAM MICKIEWICZ UNIVERSITY, priority 2014, published 2016)
